Target: T1, group II metabotropic glutamate receptor subtype 3 (mGluR3) (Homo sapiens, UniProt Q14832)
T1 construct: expressed in transfected cells; host or cells: Xenopus oocytes injected with cRNAs of mGluR3, GIRK1 and GIRK4
Test: Electrophysiological measurement of response current in Xenopus oocytes injected with mGluR3, GIRK1 and GIRK4 cRNAs
Assay type: cell-based
Conditions: for mgluR3 (receptor activation by amino acid): amino acid alone, 1 mM, oocytes injected with mGluR3, GIRK1, GIRK4 cRNAs

T1 sequence (Q14832 23-879): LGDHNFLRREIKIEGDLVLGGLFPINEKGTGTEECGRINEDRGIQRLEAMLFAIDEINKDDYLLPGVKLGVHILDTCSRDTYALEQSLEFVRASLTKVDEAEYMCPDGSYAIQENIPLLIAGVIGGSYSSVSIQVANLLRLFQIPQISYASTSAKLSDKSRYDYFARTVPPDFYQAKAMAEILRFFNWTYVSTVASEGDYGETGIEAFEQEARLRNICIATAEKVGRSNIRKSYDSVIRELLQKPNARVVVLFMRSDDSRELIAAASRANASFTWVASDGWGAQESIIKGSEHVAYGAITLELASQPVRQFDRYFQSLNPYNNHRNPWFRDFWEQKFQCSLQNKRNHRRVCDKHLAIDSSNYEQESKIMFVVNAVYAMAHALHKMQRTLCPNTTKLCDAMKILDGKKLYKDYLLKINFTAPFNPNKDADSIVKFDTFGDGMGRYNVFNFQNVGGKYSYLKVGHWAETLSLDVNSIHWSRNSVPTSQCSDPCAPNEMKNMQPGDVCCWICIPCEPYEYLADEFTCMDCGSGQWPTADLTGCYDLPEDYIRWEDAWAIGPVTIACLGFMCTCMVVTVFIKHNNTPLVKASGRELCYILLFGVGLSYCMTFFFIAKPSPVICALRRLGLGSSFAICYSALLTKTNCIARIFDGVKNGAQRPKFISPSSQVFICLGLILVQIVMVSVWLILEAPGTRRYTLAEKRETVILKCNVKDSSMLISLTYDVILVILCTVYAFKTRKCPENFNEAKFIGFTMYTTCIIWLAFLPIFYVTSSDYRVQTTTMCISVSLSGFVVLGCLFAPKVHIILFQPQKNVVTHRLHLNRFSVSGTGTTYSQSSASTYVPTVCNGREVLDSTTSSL

Compound: C[C@H](N)C(=O)O [Alanine, alanine]
- mgluR3 (receptor activation by amino acid): Activated
- mgluR3 (receptor activation by amino acid) (listed as alanine): effects of enhancing the activation

Compound: N=C(N)NCCC[C@H](N)C(=O)O [Arginine, arginine]
- mgluR3 (receptor activation by amino acid): Activated
- mgluR3 (receptor activation by amino acid) (listed as arginine): effects of enhancing the activation

Compound: NC(=O)C[C@H](N)C(=O)O [Asparagine, asparagine]
- mgluR3 (receptor activation by amino acid): Activated
- mgluR3 (receptor activation by amino acid) (listed as asparagine): effects of enhancing the activation

Compound: NC(=O)CC[C@H](N)C(=O)O [Glutamine, glutamine]
- mgluR3 (receptor activation by amino acid): Activated
- mgluR3 (receptor activation by amino acid) (listed as glutamine): effects of enhancing the activation

Compound: NCC(=O)O [Glycine, glycine]
- mgluR3 (receptor activation by amino acid): Activated
- mgluR3 (receptor activation by amino acid) (listed as glycine): effects of enhancing the activation

Compound: N[C@@H](Cc1c[nH]cn1)C(=O)O [Histidine, histidine]
- mgluR3 (receptor activation by amino acid): Activated
- mgluR3 (receptor activation by amino acid) (listed as histidine): effects of enhancing the activation

Compound: O=C(O)[C@@H]1C[C@@H](O)CN1 [Hydroxyproline, hydroxyproline]
- mgluR3 (receptor activation by amino acid): Activated
- mgluR3 (receptor activation by amino acid) (listed as hydroxyproline): effects of enhancing the activation

Compound: CC[C@H](C)[C@H](N)C(=O)O [Isoleucine, isoleucine]
- mgluR3 (receptor activation by amino acid): Activated
- mgluR3 (receptor activation by amino acid) (listed as isoleucine): effects of enhancing the activation

Compound: CC(C)C[C@H](N)C(=O)O [Leucine, leucine]
- mgluR3 (receptor activation by amino acid): Activated
- mgluR3 (receptor activation by amino acid) (listed as leucine): effects of enhancing the activation
- effect of amino acid (response current value) with cation vs amino acid alone (coexistence with calcium ion (10 mM), glutamic acid 3 μM, aspartic acid 300 μM, leucine 1 mM, cysteine 1 mM, FIG. 7): enhanced
- effect of amino acid (response current value) with nucleic acid and cation vs amino acid alone (coexistence with inosinic acid (1 mM) and calcium ion (10 mM), glutamic acid 3 μM, aspartic acid 300 μM, leucine 1 mM, cysteine 1 mM, FIG. 8): enhanced
- effect of amino acid (response current value) with nucleic acid vs amino acid alone (coexistence with inosinic acid (1 mM), glutamic acid 3 μM, aspartic acid 300 μM, valine 1 mM, leucine 1 mM, FIG. 6): enhanced

Compound: NCCCC[C@H](N)C(=O)O [Lysine, lysine]
- mgluR3 (receptor activation by amino acid): Activated
- mgluR3 (receptor activation by amino acid) (listed as lysine): effects of enhancing the activation

Compound: CSCC[C@H](N)C(=O)O [Methionine, methionine]
- mgluR3 (receptor activation by amino acid): Activated
- mgluR3 (receptor activation by amino acid) (listed as methionine): effects of enhancing the activation

Compound: NCCC[C@H](N)C(=O)O [Ornithine, ornithine]
- mgluR3 (receptor activation by amino acid): Activated
- mgluR3 (receptor activation by amino acid) (listed as ornithine): effects of enhancing the activation

Compound: N[C@@H](Cc1ccccc1)C(=O)O [Phenylalanine, phenylalanine]
- mgluR3 (receptor activation by amino acid): Activated
- mgluR3 (receptor activation by amino acid) (listed as phenylalanine): effects of enhancing the activation

Compound: O=C(O)[C@@H]1CCCN1 [Proline, proline]
- mgluR3 (receptor activation by amino acid): Activated
- mgluR3 (receptor activation by amino acid) (listed as proline): effects of enhancing the activation

Compound: N[C@@H](CO)C(=O)O [Serine, serine]
- mgluR3 (receptor activation by amino acid): Activated
- mgluR3 (receptor activation by amino acid) (listed as serine): effects of enhancing the activation

Compound: NCCS(=O)(=O)O [Taurine, taurine]
- mgluR3 (receptor activation by amino acid): Activated
- mgluR3 (receptor activation by amino acid) (listed as taurine): effects of enhancing the activation

Compound: C[C@@H](O)[C@H](N)C(=O)O [Threonine, threonine]
- mgluR3 (receptor activation by amino acid): Activated
- mgluR3 (receptor activation by amino acid) (listed as threonine): effects of enhancing the activation

Compound: N[C@@H](Cc1c[nH]c2ccccc12)C(=O)O [Tryptophan, tryptophan]
- mgluR3 (receptor activation by amino acid): Activated
- mgluR3 (receptor activation by amino acid) (listed as tryptophan): effects of enhancing the activation

Compound: N[C@@H](Cc1ccc(O)cc1)C(=O)O [Tyrosine, tyrosine]
- mgluR3 (receptor activation by amino acid): Activated
- mgluR3 (receptor activation by amino acid) (listed as tyrosine): effects of enhancing the activation
